Assay results reported in paper PMC10537268 (Plants, 2023).
Converted amounts (≈) assume the structure as drawn. “And” between values parts separate entries of the source, which are not always exact repeats. Equal entries are not always repeated.

Legend:
[1] = target: T1, ACE2 (Homo sapiens, UniProt Q9BYF1); experiment: ACE2 enzyme inhibition assay (BioVision kit); assay type: biochemical; conditions: read-out: ACE2 inhibition
T1 construct: purchased BioVision K310
Method: The ACE2 enzyme inhibition assay was performed using the commercially available kit (BioVision, UK, Catalog number: K310). Stock solutions of the test samples were prepared in DMSO (1%, v/v). Essential oils (20 μg/mL) and geraniol (5 μg/mL) were dispensed into a 96-well plate followed by addition of ACE2 enzyme solution (blank excluded). The reaction was started by adding 40 µL of substrate solution to each well. The reaction mixture was measured at Ex/Em = 320/420 nm wavelength using the SpectraMax i3, fluorescent microplate reader (Molecular Devices, CA, USA). The results are reported as % inhibition values, which were obtained for all samples from triplicate experiments.

[2] = target: T2, COX-2 (Homo sapiens, UniProt P35354); experiment: biochemical
T2 sequence (P35354 18-604): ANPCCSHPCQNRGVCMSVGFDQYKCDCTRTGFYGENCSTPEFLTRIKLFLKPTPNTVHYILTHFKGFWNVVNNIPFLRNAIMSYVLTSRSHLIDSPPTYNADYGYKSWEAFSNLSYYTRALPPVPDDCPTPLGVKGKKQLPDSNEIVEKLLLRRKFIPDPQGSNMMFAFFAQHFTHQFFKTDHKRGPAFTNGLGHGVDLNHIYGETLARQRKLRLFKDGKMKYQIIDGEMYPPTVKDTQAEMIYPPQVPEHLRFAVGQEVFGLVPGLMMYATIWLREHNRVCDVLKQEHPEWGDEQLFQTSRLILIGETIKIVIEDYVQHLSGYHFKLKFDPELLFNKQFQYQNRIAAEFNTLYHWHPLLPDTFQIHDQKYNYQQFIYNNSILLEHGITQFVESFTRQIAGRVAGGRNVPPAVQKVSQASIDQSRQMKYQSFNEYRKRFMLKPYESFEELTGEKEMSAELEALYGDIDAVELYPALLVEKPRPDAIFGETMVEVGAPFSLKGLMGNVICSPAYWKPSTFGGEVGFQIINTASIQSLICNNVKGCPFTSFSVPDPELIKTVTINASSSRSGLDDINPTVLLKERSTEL
Method: (§1) The essential oils and geraniol were tested using a commercial COX-1 (Ovine), COX-2 (Human recombinant), and fluorometric inhibitory screening assay kit following the instructions recommended by the manufacturer (Cayman test kit 700100, Cayman Chemical Company, Ann Arbor, MI, USA). Briefly, 150 µL of assay buffer (0.1 M Tris-HCl pH 8.0), 10 µL of Heme, 10 µL of enzyme (COX-1 or COX-2), and 10 µL of the test sample were added to the wells. After 5 min at 25 °C, 10 µL of ADHP (10-acetyl-3 7-dihydroxy phenoxazine) and 10 µL of arachidonic acid were added to initiate the reaction. The plate was incubated at room temperature for 2 min followed by fluorescence measured at 530 nm (excitation) and 585 nm (emission). Stock solution of the essential oils was prepared with DMSO 1%. The triplicate experimental data are expressed as mean ± standard deviation (SD). For the percentage inhibition (%I) calculations, the formula below was used:t% I = [(Initial Activity − Sample Activity)/Initial Activity] × 100

[3] = MTT cytotoxicity assay, HEK293; assay type: cell-based; conditions: human, HEK293 cells, healthy cell line, ND: Not detected
Method: (§2) Human breast cancer cell lines MCF7 (ATCC HTB-22), human prostate cancer cell lines PC3 (ATCC CRL-1435), human lung cancer cell lines A549 (ATCC CCL-185), and human embryonic kidney cell lines HEK293 (ATCC CRL-1573) were cultured in Dulbecco’s Modified Eagle’s Medium/High Glucose (DMEM, High Glucose) or Dulbecco’s Modified Eagle’s Medium/F12 (DMEM, F12) at 37 °C in a humidified 5% CO2 atmosphere. The media were supplemented with 10% fetal bovine serum (FBS), 1% (v/v) antibiotic-antimycotics solution (100 U/mL of penicillin, 100 μg/mL of streptomycin, and 0.25 μg/mL of amphotericin B), and 1% (v/v) non-essential amino acids.
(§3) Cells were cultured for 24 h in 96-well plates containing 10^5 cells per well before exposure. The essential oils and geraniol were dissolved in DMSO (<1%) and diluted with respective medium for use in MTT assay (0.1–2000 µg/mL concentration range). After incubation, the […] and washed with D-PBS followed by addition of MTT (30 µL). After a 4 h incubation period, 150 µL of DMSO was added and mixed using a shaker at 25 °C. This was followed by measurement of the absorbances a 540 nm using the microplate reader. All experiments were performed in triplicate.

[4] = test system: A549 cells; experiment: MTT cytotoxicity assay, A549; assay type: cell-based; conditions: Homo sapiens, A549, 24 h, read-out: IC50 A549 cytotoxicity
Method: as §2, §3

[5] = test system: PC3 cells; experiment: MTT cytotoxicity assay, PC3; assay type: cell-based; conditions: Homo sapiens, PC-3, 24 h, read-out: IC50 PC3 cytotoxicity
Method: as §2, §3

[6] = target: T3, COX-1 (Ovis aries, UniProt P05979); experiment: COX-1 fluorometric inhibitory screening assay kit; assay type: biochemical, Ovine
T3 construct: purchased Cayman Chemical Company 700100
T3 sequence (P05979 25-600): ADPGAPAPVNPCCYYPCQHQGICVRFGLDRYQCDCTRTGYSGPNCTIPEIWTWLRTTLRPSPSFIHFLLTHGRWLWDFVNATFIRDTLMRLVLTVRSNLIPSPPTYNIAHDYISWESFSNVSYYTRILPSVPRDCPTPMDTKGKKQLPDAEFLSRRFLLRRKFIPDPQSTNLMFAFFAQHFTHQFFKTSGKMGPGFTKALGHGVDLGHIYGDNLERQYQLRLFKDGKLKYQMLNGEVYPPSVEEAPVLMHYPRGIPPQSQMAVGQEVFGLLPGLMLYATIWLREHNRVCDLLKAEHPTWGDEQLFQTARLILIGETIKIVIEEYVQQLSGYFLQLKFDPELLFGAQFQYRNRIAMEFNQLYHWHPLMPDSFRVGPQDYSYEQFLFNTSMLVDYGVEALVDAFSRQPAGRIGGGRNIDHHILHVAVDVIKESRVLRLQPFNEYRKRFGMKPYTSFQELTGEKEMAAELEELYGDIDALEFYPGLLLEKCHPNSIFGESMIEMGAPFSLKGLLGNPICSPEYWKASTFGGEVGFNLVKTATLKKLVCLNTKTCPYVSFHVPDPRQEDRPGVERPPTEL
Method: as §1

[7] = test system: MCF7 cells; experiment: MTT cytotoxicity assay, MCF7; assay type: cell-based; conditions: Homo sapiens, MCF7, 24 h, read-out: IC50 MCF7 cytotoxicity
Method: as §2, §3

[8] = target: T4, AChE (Electrophorus electricus, UniProt O42275); experiment: Anticholinesterase activity, modified Ellman method (AChE); assay type: biochemical
T4 construct: purchased Sigma Aldrich
Method: Cholinesterase inhibition was determined spectrophotometrically through the modified Ellman method. Ethanol was used as negative control. Sodium phosphate buffer, AChE enzyme stock solution, the essential oils, and geraniol were mixed and allowed to incubate for 30 min at room temperature DTNB and acetylthiocholine were added to initiate the enzyme reaction.

[9] = human recombinant COX-2, fluorometric kit

T4 sequence (O42275 24-633): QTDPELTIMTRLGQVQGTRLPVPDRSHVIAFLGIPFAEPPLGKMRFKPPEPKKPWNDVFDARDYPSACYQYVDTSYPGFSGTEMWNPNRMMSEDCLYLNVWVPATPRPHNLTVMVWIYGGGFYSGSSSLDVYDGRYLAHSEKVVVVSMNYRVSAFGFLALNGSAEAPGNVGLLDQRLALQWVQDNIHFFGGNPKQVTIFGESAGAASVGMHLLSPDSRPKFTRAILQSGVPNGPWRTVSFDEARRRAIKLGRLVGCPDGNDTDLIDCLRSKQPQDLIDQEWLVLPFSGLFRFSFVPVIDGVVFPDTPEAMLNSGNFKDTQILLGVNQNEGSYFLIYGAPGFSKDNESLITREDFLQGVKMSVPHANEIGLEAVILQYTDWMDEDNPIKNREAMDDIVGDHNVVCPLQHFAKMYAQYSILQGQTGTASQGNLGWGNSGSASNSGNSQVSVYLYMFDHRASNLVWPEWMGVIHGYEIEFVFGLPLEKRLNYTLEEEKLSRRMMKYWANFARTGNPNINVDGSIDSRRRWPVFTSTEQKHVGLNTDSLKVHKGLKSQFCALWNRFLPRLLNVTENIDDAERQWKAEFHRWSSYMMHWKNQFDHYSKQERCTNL
T1 sequence (Q9BYF1 18-805): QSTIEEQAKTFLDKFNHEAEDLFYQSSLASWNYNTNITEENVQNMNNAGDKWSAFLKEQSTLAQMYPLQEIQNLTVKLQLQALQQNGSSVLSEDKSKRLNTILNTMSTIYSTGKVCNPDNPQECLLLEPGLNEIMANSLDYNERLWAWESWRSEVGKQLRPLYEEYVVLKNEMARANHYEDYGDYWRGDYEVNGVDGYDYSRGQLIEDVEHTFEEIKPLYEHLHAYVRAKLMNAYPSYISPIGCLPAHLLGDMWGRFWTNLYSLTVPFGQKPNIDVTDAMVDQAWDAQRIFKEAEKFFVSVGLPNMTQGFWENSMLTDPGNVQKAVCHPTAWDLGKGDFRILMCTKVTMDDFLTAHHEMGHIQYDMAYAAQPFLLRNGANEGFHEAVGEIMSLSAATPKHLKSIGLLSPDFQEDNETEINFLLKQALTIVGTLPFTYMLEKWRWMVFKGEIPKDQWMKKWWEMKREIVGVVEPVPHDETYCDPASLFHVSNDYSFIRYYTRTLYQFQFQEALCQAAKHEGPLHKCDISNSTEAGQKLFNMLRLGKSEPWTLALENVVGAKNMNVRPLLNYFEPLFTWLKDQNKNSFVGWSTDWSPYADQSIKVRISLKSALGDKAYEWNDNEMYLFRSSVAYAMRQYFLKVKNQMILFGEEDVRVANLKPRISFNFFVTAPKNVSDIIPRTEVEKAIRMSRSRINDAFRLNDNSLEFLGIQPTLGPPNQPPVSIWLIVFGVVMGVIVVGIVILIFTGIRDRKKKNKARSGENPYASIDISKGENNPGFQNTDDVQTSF

Structure (SMILES)	inhibition at 5 µg/mL [1] [%]	SI (selectivity index) ([2]; COX-2 versus COX-1 IC50)	IC50 [2, 9]	IC50 at 24 h [3] [µg/mL]	IC50 [4] [µg/mL]	IC50 [5] [µg/mL]	IC50 ([6]; IC50 COX-1, ovine COX-1, fluorometric kit)	IC50 [7] [µg/mL]	IC50 [8] [µM]	IC50 COX-2 [2, 9] [µg/mL]	IC50 COX-1 ([6]; ovine COX-1, fluorometric kit) [µg/mL]
CC(C)=CCC/C(C)=C/CO [Geraniol]	86.3	0.72	52.5 µM and 52.6 µM	81.8 ± 1.98 (≈ 530 µM)	58.9 ± 1.09 (≈ 382 µM)	77 ± 2.06 (≈ 499 µM)	71.3 µM and 72.4 µM	42.8 ± 1.48 (≈ 278 µM)	109		
CC(Cc1ccc(O)c(O)c1)C(C)Cc1ccc(O)c(O)c1 (centres unmarked) [Nordihydroguaretic Acid, Nordihydroguaiaretic acid, reference compound]										9.1	7.1 (≈ 23.5 µM)
